From US20230346853A1, “Probiotic Lyophilizate Reactivation Composition for Improving Intestinal Survivability and Adhesion of Probiotics” (COSMAX NBT, INC., priority 2021, published 2023)
Like-named read-outs stand apart in the source and are kept apart here.

Assays:
[1] = test system: Lactobacillus plantarum HAC03; test: in vitro Simulated Stomach Duodenum Passage (SSDP) probiotic survivability, lyophilized HAC03; assay type: cell-based; conditions: for survivability compared with fresh cells, in words / Artificial Bile Juice Survivability (%) / Artificial Bile Juice log CFU/mL / Artificial Gastric Juice Survivability (%) / Artificial Gastric Juice log CFU/mL: Table 3; for Artificial Bile Juice Survivability (%) / Artificial Bile Juice log CFU/mL / Artificial Gastric Juice Survivability (%) / Artificial Gastric Juice log CFU/mL: carbohydrate mixed with HAC03 lyophilizate; for viability at 100000 µM: Lactiplantibacillus plantarum; for intestinal survivability (acid resistance and bile resistance) in words: compared to fresh bacteria / distilled water
Procedure: The HAC03 strain was mixed with each of the single compositions and 1 mL of distilled water for 1 min. The compositions were formulated to have a final concentration of 0.1 M when dissolved in 1 ml of distilled water. Thereafter, 9 mL of distilled water adjusted to have a pH of 2.5 was added to each mixture. The pH was readjusted back to 2.5 in case of an increased pH due to the nature of some of the single ingredients (in order to not affect the survival of the probiotics). After adjusting the pH to 2.5, the tubes were incubated at 37° C. for 1 hour to apply the low-pH gastric stress condition. […] During the gastrointestinal tract assay, the samples were taken immediately, 1 hour, and […] after the incubation (t=0, 1, and 2). The probiotic survivability of each sample after gastric stress and bile stress was calculated by counting viable colonies.

[2] = test system: Lactobacillus plantarum HAC03; test: Zeta potential of lyophilized probiotics mixed with single ingredients (screening); assay type: cell-based; conditions: 0.1 M ingredient, rehydrated 1 min, pH 2.5
Procedure: In this experimental example, Lactobacillus plantarum HAC03 (accession number: KCTC13242BP, the Korean Research Institute of Bioscience and Biotechnology) (hereinafter referred to as “HAC03”), which was described in Korean Patent Application No. 10-2017-0051574, was used as a probiotic strain.
Afterwards, 2 mL of pH 2.5 distilled water was added to each sample, the pH was re-adjusted using HCl 0.1 N, and 800 μl of the calibrated sample was loaded in DTS1080 cuvettes. The electrophoretic mobility was measured by the Zetaizer Nano ZEN 3600 (Malvern Panalytica, UK) after 2 minutes of equilibration and the Smoluchowski equation was used to convert the data into zetapotential values.
In this experiment, zeta potentials were measured at a pH of 2.5 in consideration of the highly acidic stomach environment, which is one of the initial hurdles that drastically reduce the survivability of the bacteria.

[3] = HAC03, 1 h, pH 2.5, read-out: Stomach Survivability (%)
[4] = HAC03, 2 h, pH 6, read-out: Duodenum Survivability (%)
[5] = Table 1, 0.1 M ingredient, pH 2.5, 37° C., 1 hour
[6] = Table 1, 0.1 M ingredient, then bile salts (10% ox gall) and pH 6.0 synthetic duodenum juice, 2 hours
[7] = HAC03, Table 1, 0.1 M ingredient, pH 2.5, 37° C., 1 hour, read-out: Stomach Survivability (%)
[8] = HAC03, Table 1, 0.1 M ingredient, then bile salts (10% ox gall) and pH 6.0 synthetic duodenum juice, 2 hours, read-out: Duodenum Survivability (%)

SMILES	survivability compared with fresh cells, in words [1]	Artificial Bile Juice Survivability (%) [1]	Artificial Bile Juice log CFU/mL [1]	Artificial Gastric Juice Survivability (%) [1]	Artificial Gastric Juice log CFU/mL [1]	viability at 100000 µM [1, 3]	viability at 100000 µM [1, 4]	Stomach log CFU/mL [1, 5]	Duodenum log CFU/mL [1, 6]	intestinal survivability (acid resistance and bile resistance) in words ([1]; Table 1)	zeta potential of lyophilized HAC03 mixed with the ingredient (sign, FIG. 1) [2]	viability at 100000 µM [1, 7]	viability at 100000 µM [1, 8]
OC[C@H]1O[C@@](CO)(O[C@H]2O[C@H](CO)[C@@H](O)[C@H](O)[C@H]2O)[C@@H](O)[C@@H]1O [Sucrose]	survivability similar to or higher than that of fresh cells	42.99%	7.71 ± 0.13 log CFU/mL	80.90%	7.99 ± 0.13 log CFU/mL	–	–	–	–	–	–	–	–
OC[C@H]1O[C@H](O[C@H]2O[C@H](CO)[C@@H](O)[C@H](O)[C@H]2O)[C@H](O)[C@@H](O)[C@@H]1O [Trehalose]	survivability similar to or higher than that of fresh cells	28.10%	7.36 ± 0.03 log CFU/mL	54.75%	7.65 ± 0.05 log CFU/mL	–	–	–	–	–	–	–	–
OC[C@@H](O)[C@@H](O)[C@H](O)[C@@H](O)CO [Sorbitol]	survivability similar to or higher than that of fresh cells	40.46%	7.69 ± 0.09 log CFU/mL	82.06%	8.00 ± 0.05 log CFU/mL	–	–	–	–	–	–	–	–
OC[C@H]1O[C@H](O[C@H]2[C@H](O)[C@@H](O)C(O)O[C@@H]2CO)[C@H](O)[C@@H](O)[C@@H]1O (mixture of isomers) [Maltose]	survivability similar to or higher than that of fresh cells	33.79%	7.61 ± 0.13 log CFU/mL	85.43%	8.02 ± 0.05 log CFU/mL	–	–	–	–	–	–	–	–
N=C(N)NCCC[C@H](N)C(=O)O [L-Arginine, L-arginine]	–	–	–	–	–	0.13%	0.08%	4.00 ± 0.00 log CFU/mL	3.73 ± 0.34 log CFU/mL	intestinal survivability far inferior to that of distilled water	positive zeta potentials	–	–
C[C@H](O)[C@H](O)[C@@H](O)[C@@H](O)C=O [Rhamnose]	–	18.25%	7.53 ± 0.08 log CFU/mL	40.75%	7.87 ± 0.10 log CFU/mL	–	–	–	–	–	–	–	–
O=C[C@@H](O)[C@H](O)[C@H](O)CO [Arabinose]	–	9.45%	7.02 ± 0.35 log CFU/mL	17.78%	7.12 ± 0.67 log CFU/mL	–	–	–	–	–	–	–	–
N[C@@H](Cc1c[nH]cn1)C(=O)O [L-Histidine, L-histidine]	–	–	–	–	–	–	–	7.83 ± 0.11 log CFU/mL	7.52 ± 0.08 log CFU/mL	increased in acid resistance and bile resistance	negative zeta potentials	56.6%	27.2%
OC[C@@H](O)[C@@H](O)[C@H](O)[C@H](O)CO [Mannitol]	–	11.77%	6.90 ± 0.44 log CFU/mL	20.04%	7.18 ± 0.32 log CFU/mL	–	–	–	–	–	–	–	–
NCCC[C@H](N)C(=O)O [L-Ornithine, L-ornithine]	–	–	–	–	–	–	–	7.75 ± 0.02 log CFU/mL	7.57 ± 0.03 log CFU/mL	–	negative zeta potentials	–	–
O=C(CO)[C@@H](O)[C@H](O)[C@H](O)CO [Fructose]	survivability similar to or higher than that of fresh cells	20.73%	7.27 ± 0.48 log CFU/mL	46.18%	7.67 ± 0.37 log CFU/mL	–	–	–	–	–	–	–	–
N[C@@H](Cc1ccc(O)cc1)C(=O)O [L-Tyrosine, L-tyrosine]	–	–	–	–	–	–	–	7.98 ± 0.04 log CFU/mL	7.65 ± 0.01 log CFU/mL	increased in acid resistance and bile resistance	negative zeta potentials	73.5%	33.9%
O=C1O[C@H]([C@@H](O)CO)C(O)=C1O [L-Ascorbic acid, L-ascorbic acid]	–	–	–	–	–	0.4%	0.1%	4.08 ± 0.15 log CFU/mL	3.49 ± 0.00 log CFU/mL	intestinal survivability far inferior to that of distilled water	positive zeta potentials	–	–
O=C(O)CC(O)C(=O)O (centres unmarked) [Malic acid, malic acid]	–	–	–	–	–	–	–	<3.99 ± 0.00 log CFU/mL	<3.49 ± 0.00 log CFU/mL	intestinal survivability far inferior to that of distilled water	positive zeta potentials	< 0.01%	< 0.003%
O=C[C@H](O)[C@@H](O)[C@H](O)CO [Xylose]	–	8.47%	6.97 ± 0.49 log CFU/mL	27.36%	7.50 ± 0.25 log CFU/mL	–	–	–	–	–	–	–	–
N[C@@H](CC(=O)O)C(=O)O [L-Aspartic acid, L-aspartic acid]	–	–	–	–	–	–	–	7.06 ± 0.56 log CFU/mL	5.80 ± 0.64 log CFU/mL	intestinal survivability far inferior to that of distilled water	positive zeta potentials	29.9%	1.86%
